Experimental data as given in US20180110781A1, “SYSTEM AND METHOD FOR DIAGNOSIS AND TREATMENT OF NEUROPSYCHIATRIC DISORDERS” (Research Foundation For Mental Hygiene, Inc., priority 2016, published 2018).
Entries after “also recorded” stand apart in the source; their conditions may differ. Structures can show the parent of a compound that is named as a salt.

Assays:
[1] = test system: outpatients with schizophrenia or schizoaffective disorder; set-up: species or system human; details: in vivo
Method: (§1) A six-week, rater-blind, multivitamin-controlled trial of Kuvan® was performed at the Lieber Schizophrenia Research Clinic, New York State Psychiatric Institute. Clinically stable outpatients with schizophrenia or schizoaffective disorder were randomly assigned to receive Kuvan® (20mg/kg/day) or a single, daily multivitamin tablet, added to their medication regimen. Subjects were also genotyped for the GCH1 gene promotor polymorphism (r510137071). The primary clinical efficacy outcome was change in total Positive and Negative Symptom Scale (PANSS) scores, measured at baseline, then weeks 2, 4 and 6. Improvements in function was measured by the UPSA-B, at baseline, then week 6. The primary cognitive outcome was measured by the MCCB, measured at baseline and week 6. A priori defined secondary outcomes were PANSS factor scores and MCCB domain scores.
No AEs were considered by the investigators to be serious. 75% (9/12) of subjects randomized to the multivitamin group and 61.5% (8/13) of those treated with Kuvan® experienced an AE, which was not statistically different (p=0.47). There was no statistically significant difference in the average number of AEs experienced by each subject (Kuvan=2.44±1.13; Multivitamin=3.0±2.07, p=0.49), or the degree to which each AEs was considered related to the study medication (Kuvan 18/24 total events; multivitamin 13/22 total events, p=0.35). Additionally, two subjects prematurely discontinued from the study based upon the predefined stopping rules, both of whom had been randomized to the multivitamin group.

[2] = test system: outpatients with schizophrenia or schizoaffective disorder; test: Six-week trial of Kuvan: MATRICS Consensus Cognitive Battery (MCCB); format: in vivo, human
Method: as §1, with “scores. Data were analyzed using a mixed effects repeated measures model (Stata v14.1, College Station, TX). Models included fixed effects of treatment, time (week) and the treatment by time interaction, with random subject and time effects. Genotype (GCH1 A allele versus GG genotype) was also included as a fixed effect in additional models. […] All hypothesis tests were two-sided, with significance determined at unadjusted p<0.05.” for “scores.”

[3] = test system: outpatients with schizophrenia or schizoaffective disorder; test: Six-week rater-blind multivitamin-controlled trial of Kuvan: Positive and Negative Symptom Scale (PANSS); format: in vivo, human
Method: as §1, with “scores. Data were analyzed using a mixed effects repeated measures model (Stata v14.1, College Station, TX). Models included fixed effects of treatment, time (week) and the treatment by time interaction, with random subject and time effects. Genotype (GCH1 A allele versus GG genotype) was also included as a fixed effect in additional models. […] All hypothesis tests were two-sided, with significance determined at unadjusted p<0.05.” for “scores.”

[4] = test system: outpatients with schizophrenia or schizoaffective disorder; test: Six-week trial of Kuvan: UCSD Performance Based Skills Assessment-Brief (UPSA-B); format: in vivo, human
Method: as §1, with “scores. Data were analyzed using a mixed effects repeated measures model (Stata v14.1, College Station, TX). Models included fixed effects of treatment, time (week) and the treatment by time interaction, with random subject and time effects. Genotype (GCH1 A allele versus GG genotype) was also included as a fixed effect in additional models. […] All hypothesis tests were two-sided, with significance determined at unadjusted p<0.05.” for “scores.”

[5] = did not reach two-tailed statistical significance

Compound: C[C@H](O)[C@H](O)[C@H]1CNc2nc(N)[nH]c(=O)c2N1 [Kuvan®, saproterin dihydrochloride]
- AEs considered related to the study medication ([1]; human, 6 weeks): 18/24
- average number of AEs experienced by each subject ([1]; human, 6 weeks): 2.44±1.13
- subjects who experienced an adverse event ([1]; human, 6 weeks): 61.5%
- severity of adverse events [1]: generally mild
- MCCB composite score, final mean ([2]; GCH1 A allele patients, study end (week 6), Kuvan n=5 p=0.044, multivitamin n=8 p=0.36 vs baseline): 34.4±11.89
- MCCB composite score, baseline mean ([2]; GCH1 A allele patients, Kuvan n=5, multivitamin n=8): 28.4±8.62
- interaction of treatment, time and genotype on the MCCB Composite Score ([2]; GCH1 A allele versus GG, p=0.002, dihydrochloride): significant effect of GCH1 genotype by treatment group; also recorded: significant interaction
- A allele carriers exhibiting improvement on the MCCB composite T score ([2]; baseline to study end, Kuvan 4/5, multivitamin 2/8): 80%
- MCCB Social Cognition domain, Kuvan group versus multivitamin group ([2]; baseline to week 6, p=0.085): trend toward significance
- MCCB social cognition domain score, change from baseline [2, 5]: increased from baseline
- MCCB working memory domain score, change from baseline [2, 5]: increased from baseline
- MCCB Working Memory domain, Kuvan group versus multivitamin group ([2]; n=13 vs n=12 completers, baseline to week 6, p=0.05): performance improvement
- cognitive change from baseline (MCCB composite) in GCH1 A allele patients ([2]; paired t-test p=0.044): significant cognitive improvement
- MCCB composite score, treatment*time interaction ([2]; primary cognitive outcome, one-tailed trend p=0.0735): did not show a significant treatment*time interaction
- change in total PANSS score, treatment effect ([3]; Kuvan 20mg/kg/day vs daily multivitamin, baseline to week 6, treatment*time p>0.05): no treatment effect
- PANSS factor scores (Positive, Negative and General Psychopathology), treatment*time effect ([3]; Kuvan vs multivitamin, six weeks): no significant treatment*time effect
- genotype effect (treatment*time*genotype) on total PANSS score ([3]; p<0.1 for each visit compared to baseline): A genotype effect was not observed
- UPSA-B Financial subscale, Kuvan group versus multivitamin group ([4]; baseline to week 6, p<0.001): performance improvement
- treatment*time*genotype interaction on total UPSA-B score ([4]; p=0.096): trend towards significance
- unadjusted UPSA-B Financial Subscale scores, change between baseline and study end ([4]; paired sample t-tests, Kuvan p=0.039, multivitamin p=0.025): significant increase
- UPSA-B score, treatment*time interaction ([4]; primary functional outcome): did not show a significant treatment*time interaction
